From PubChem BioAssay (NCI)
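Compound exposure: 48 hours, 5 concentrations, 96-well plates. TGI marks complete inhibition of growth.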

Columns and labels:
Experiment in all cases: growth of human tumour cells (NCI), 48 h
A549 NSCLC = tested on: A549 NSCLC
ACHN renal = tested on: ACHN renal
CAKI-1 renal = tested on: CAKI-1 renal
CCRF-CEM leukemia = tested on: CCRF-CEM leukemia
COLO 205 colon = tested on: COLO 205 colon
DU-145 prostate = tested on: DU-145 prostate
HCC-2998 colon = tested on: HCC-2998 colon
HCT-116 colon = tested on: HCT-116 colon
HCT-15 colon = tested on: HCT-15 colon
HL-60(TB) leukemia = tested on: HL-60(TB) leukemia
HOP-62 NSCLC = tested on: HOP-62 NSCLC
HOP-92 NSCLC = tested on: HOP-92 NSCLC
HS 578T breast = tested on: HS 578T breast
HT29 colon = tested on: HT29 colon
IGROV1 ovarian = tested on: IGROV1 ovarian
K-562 leukemia = tested on: K-562 leukemia
LOX IMVI melanoma = tested on: LOX IMVI melanoma
M14 melanoma = tested on: M14 melanoma
MDA-MB-231 breast = tested on: MDA-MB-231 breast
MDA-MB-435 = tested on: MDA-MB-435
MDA-N = tested on: MDA-N
MOLT-4 leukemia = tested on: MOLT-4 leukemia
NCI-H226 lung = tested on: NCI-H226 lung
NCI-H23 lung = tested on: NCI-H23 lung
NCI-H460 lung = tested on: NCI-H460 lung
NCI-H522 lung = tested on: NCI-H522 lung
NCI/ADR-RES ovarian = tested on: NCI/ADR-RES ovarian
OVCAR-3 ovarian = tested on: OVCAR-3 ovarian
OVCAR-4 ovarian = tested on: OVCAR-4 ovarian
OVCAR-5 ovarian = tested on: OVCAR-5 ovarian
OVCAR-8 ovarian = tested on: OVCAR-8 ovarian
PC-3 prostate = tested on: PC-3 prostate
RPMI-8226 leukemia = tested on: RPMI-8226 leukemia
SF-295 CNS = tested on: SF-295 CNS
SK-MEL-2 melanoma = tested on: SK-MEL-2 melanoma
SK-MEL-28 melanoma = tested on: SK-MEL-28 melanoma
SK-MEL-5 melanoma = tested on: SK-MEL-5 melanoma
SK-OV-3 ovarian = tested on: SK-OV-3 ovarian
SN12C renal = tested on: SN12C renal
SNB-19 CNS = tested on: SNB-19 CNS
SNB-75 CNS = tested on: SNB-75 CNS
SR leukemia = tested on: SR leukemia
SW-620 colon = tested on: SW-620 colon
T-47D breast = tested on: T-47D breast
TK-10 renal = tested on: TK-10 renal
U251 CNS = tested on: U251 CNS
UACC-257 melanoma = tested on: UACC-257 melanoma
UO-31 renal = tested on: UO-31 renal
786-0 renal = tested on: 786-0 renal
KM12 colon = tested on: KM12 colon
MALME-3M melanoma = tested on: MALME-3M melanoma
SF-268 CNS = tested on: SF-268 CNS
SF-539 CNS = tested on: SF-539 CNS
UACC-62 melanoma = tested on: UACC-62 melanoma
A498 renal = tested on: A498 renal
BT-549 breast = tested on: BT-549 breast
EKVX NSCLC = tested on: EKVX NSCLC
RXF 393 renal = tested on: RXF 393 renal

c1ccc(N=C(N2CCCCC2)N(CCN2CCCCC2)c2ccccc2)cc1
TGI (A549 NSCLC): 14.2 µM
TGI (ACHN renal): 4.58 µM
TGI (CAKI-1 renal): 14.1 µM
TGI (CCRF-CEM leukemia): 2.03 µM
TGI (COLO 205 colon): 11.2 µM
TGI (DU-145 prostate): 12.7 µM
TGI (HCC-2998 colon): 5.16 µM
TGI (HCT-116 colon): 4.18 µM
TGI (HCT-15 colon): 12.7 µM
TGI (HL-60(TB) leukemia): 1.02 µM
TGI (HOP-62 NSCLC): 3.07 µM
TGI (HOP-92 NSCLC): 6.2 µM
TGI (HS 578T breast): 3.51 µM
TGI (HT29 colon): 2.93 µM
TGI (IGROV1 ovarian): 12.1 µM
TGI (K-562 leukemia): 4.27 µM
TGI (LOX IMVI melanoma): 2.39 µM
TGI (M14 melanoma): 16.1 µM
TGI (MDA-MB-231 breast): 11 µM
TGI (MDA-MB-435): 9.01 µM
TGI (MDA-N): 2.96 µM
TGI (MOLT-4 leukemia): 1.74 µM
TGI (NCI-H226 lung): 16 µM
TGI (NCI-H23 lung): 7.17 µM
TGI (NCI-H460 lung): 2.02 µM
TGI (NCI-H522 lung): 4.58 µM
TGI (NCI/ADR-RES ovarian): 4.29 µM
TGI (OVCAR-3 ovarian): 2.51 µM
TGI (OVCAR-4 ovarian): 17 µM
TGI (OVCAR-5 ovarian): 8.01 µM
TGI (OVCAR-8 ovarian): 11.3 µM
TGI (PC-3 prostate): 3.72 µM
TGI (RPMI-8226 leukemia): 0.627 µM
TGI (SF-295 CNS): 2.21 µM
TGI (SK-MEL-2 melanoma): 4.64 µM
TGI (SK-MEL-28 melanoma): 8.65 µM
TGI (SK-MEL-5 melanoma): 3.3 µM
TGI (SK-OV-3 ovarian): 14 µM
TGI (SN12C renal): 12.5 µM
TGI (SNB-19 CNS): 14.4 µM
TGI (SNB-75 CNS): 6.44 µM
TGI (SR leukemia): 2.31 µM
TGI (SW-620 colon): 13.7 µM
TGI (T-47D breast): 9.23 µM
TGI (TK-10 renal): 14.2 µM
TGI (U251 CNS): 5.39 µM
TGI (UACC-257 melanoma): 6.61 µM
TGI (UO-31 renal): 8.07 µM

O=C(OC1C(Oc2ccccc2COC(=O)C2(O)C=CCCC2=O)OC(CO)C(O)C1O)c1ccccc1 (stereo not given)
TGI (786-0 renal): > 100 µM
TGI (A549 NSCLC): 38.8 µM
TGI (ACHN renal): > 100 µM
TGI (CAKI-1 renal): 28.3 µM
TGI (COLO 205 colon): 90.3 µM
TGI (DU-145 prostate): > 100 µM
TGI (HCT-116 colon): > 100 µM
TGI (HCT-15 colon): > 100 µM
TGI (HL-60(TB) leukemia): 54.6 µM
TGI (HOP-62 NSCLC): > 100 µM
TGI (HOP-92 NSCLC): 42.5 µM
TGI (HS 578T breast): 56.4 µM
TGI (HT29 colon): > 100 µM
TGI (IGROV1 ovarian): > 100 µM
TGI (K-562 leukemia): > 100 µM
TGI (KM12 colon): > 100 µM
TGI (LOX IMVI melanoma): > 100 µM
TGI (M14 melanoma): > 100 µM
TGI (MALME-3M melanoma): 82.1 µM
TGI (MDA-MB-231 breast): > 100 µM
TGI (MDA-MB-435): > 100 µM
TGI (MDA-N): > 100 µM
TGI (MOLT-4 leukemia): 76.9 µM
TGI (NCI-H226 lung): > 100 µM
TGI (NCI-H23 lung): > 100 µM
TGI (NCI-H460 lung): > 100 µM
TGI (NCI-H522 lung): 51.1 µM
TGI (NCI/ADR-RES ovarian): > 100 µM
TGI (OVCAR-4 ovarian): > 100 µM
TGI (OVCAR-5 ovarian): > 100 µM
TGI (OVCAR-8 ovarian): > 100 µM
TGI (PC-3 prostate): > 100 µM
TGI (RPMI-8226 leukemia): 58.1 µM
TGI (SF-268 CNS): 93.5 µM
TGI (SF-539 CNS): > 100 µM
TGI (SK-MEL-2 melanoma): > 100 µM
TGI (SK-MEL-28 melanoma): > 100 µM
TGI (SK-MEL-5 melanoma): 17.9 µM
TGI (SK-OV-3 ovarian): > 100 µM
TGI (SN12C renal): > 100 µM
TGI (SNB-19 CNS): > 100 µM
TGI (SNB-75 CNS): 60 µM
TGI (SR leukemia): > 100 µM
TGI (SW-620 colon): > 100 µM
TGI (TK-10 renal): > 100 µM
TGI (U251 CNS): > 100 µM
TGI (UACC-257 melanoma): > 100 µM
TGI (UACC-62 melanoma): > 100 µM
TGI (UO-31 renal): > 100 µM

O=S(=O)(Nc1nc2ccccc2n1S(=O)(=O)c1ccccc1)c1ccccc1
TGI (786-0 renal): > 100 µM
TGI (A498 renal): > 100 µM
TGI (A549 NSCLC): > 100 µM
TGI (ACHN renal): 61.9 µM
TGI (BT-549 breast): > 100 µM
TGI (CAKI-1 renal): > 100 µM
TGI (CCRF-CEM leukemia): 73.8 µM
TGI (COLO 205 colon): > 100 µM
TGI (DU-145 prostate): > 100 µM
TGI (EKVX NSCLC): > 100 µM
TGI (HCT-116 colon): > 100 µM
TGI (HCT-15 colon): > 100 µM
TGI (HOP-62 NSCLC): > 100 µM
TGI (HOP-92 NSCLC): > 100 µM
TGI (HS 578T breast): > 100 µM
TGI (HT29 colon): > 100 µM
TGI (IGROV1 ovarian): > 100 µM
TGI (K-562 leukemia): > 100 µM
TGI (KM12 colon): > 100 µM
TGI (LOX IMVI melanoma): > 100 µM
TGI (M14 melanoma): > 100 µM
TGI (MALME-3M melanoma): > 100 µM
TGI (MDA-MB-231 breast): > 100 µM
TGI (MDA-MB-435): > 100 µM
TGI (MDA-N): > 100 µM
TGI (MOLT-4 leukemia): > 100 µM
TGI (NCI-H226 lung): > 100 µM
TGI (NCI-H23 lung): > 100 µM
TGI (NCI-H522 lung): > 100 µM
TGI (NCI/ADR-RES ovarian): > 100 µM
TGI (OVCAR-3 ovarian): > 100 µM
TGI (OVCAR-4 ovarian): > 100 µM
TGI (OVCAR-5 ovarian): > 100 µM
TGI (OVCAR-8 ovarian): > 100 µM
TGI (PC-3 prostate): > 100 µM
TGI (RPMI-8226 leukemia): > 100 µM
TGI (RXF 393 renal): > 100 µM
TGI (SF-268 CNS): > 100 µM
TGI (SF-295 CNS): > 100 µM
TGI (SK-MEL-2 melanoma): > 100 µM
TGI (SK-MEL-28 melanoma): > 100 µM
TGI (SK-MEL-5 melanoma): > 100 µM
TGI (SK-OV-3 ovarian): > 100 µM
TGI (SN12C renal): > 100 µM
TGI (SNB-19 CNS): > 100 µM
TGI (SNB-75 CNS): > 100 µM
TGI (SW-620 colon): > 100 µM
TGI (T-47D breast): > 100 µM
TGI (TK-10 renal): > 100 µM
TGI (U251 CNS): > 100 µM
TGI (UACC-257 melanoma): > 100 µM
TGI (UACC-62 melanoma): > 100 µM
TGI (UO-31 renal): > 100 µM
